From patent publication US6867218B2, “Compounds, their preparation and use” (Novo Nordisk A/S, priority 2000, dated 2005)

How the values were obtained:
human PPAR α = molecular target: T1, human PPAR α (Homo sapiens, UniProt Q07869); assay: In vitro PPAR alpha transactivation assay (GAL4-DBD/PPAR-LBD, luciferase reporter, HEK293); type: cell-based; conditions: for In vitro activation PPAR α % max: fold activation relative to maximum activation obtained with Wy14643 (approx. 20 fold corresponded to 100%); for EC50: transfected HEK293 cells, 24 h compound, five concentrations 0.01 to 30 μM, at least three experiments, means, read-out: In vitro activation PPAR α EC50
T1 construct: expressed in transfected cells; host or cells: HEK293
T1 sequence (Q07869 167-468 limits assumed): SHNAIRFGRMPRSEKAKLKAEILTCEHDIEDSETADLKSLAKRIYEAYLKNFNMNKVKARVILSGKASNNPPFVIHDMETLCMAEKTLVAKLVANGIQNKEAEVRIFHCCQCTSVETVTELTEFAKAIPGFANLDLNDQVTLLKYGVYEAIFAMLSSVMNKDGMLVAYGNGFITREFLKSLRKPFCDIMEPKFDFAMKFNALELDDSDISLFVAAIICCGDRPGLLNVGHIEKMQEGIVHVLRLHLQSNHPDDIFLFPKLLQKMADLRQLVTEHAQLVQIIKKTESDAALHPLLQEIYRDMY
Text: (§1) In Vitro PPAR Alpha and PPAR Gamma Activation Activity.
(§2) The PPAR gene transcription activation assays were based on transient transfection into human HEK293 cells of two plasmids encoding a chimeric test protein and a reporter protein respectively. The chimeric test protein was a fusion of the DNA binding domain (DBD) from the yeast GAL4 transcription factor to the ligand binding domain (LBD) of the human PPAR proteins. The PPAR LBD harbored in addition to the ligand binding pocket also the native activation domain (activating function 2=AF2) allowing the fusion protein to function as a PPAR ligand dependent transcription factor. The GAL4 DBD will force the fusion protein to bind only to Gal4 enhancers (of which none existed in HEK293 cells). The reporter plasmid contained a Gal4 enhancer driving the expression of the firefly luciferase protein. After transfection, HEK293 cells expressed the GAL4-DBD-PPAR-LBD fusion protein. The fusion protein will in turn bind to the Gal4 enhancer controlling the luciferase expression, and do nothing in the absence of ligand. Upon addition to the cells of a PPAR ligand, luciferase protein will be produced in amounts corresponding to the activation of the PPAR protein. The amount of luciferase protein is measured by light emission after addition of the appropriate substrate.
(§3) Cell culture and transfection: HEK293 cells were grown in DMEM+10% FCS. Cells were seeded in 96-well plates the day before transfection to give a confluency of 50-80% at transfection. A total of […] DNA containing 0.64 μg pM1α/γLBD, 0.1 μg pCMVβGal, 0.08 μg pGL2Gal4DBD and 0.02 μg p[…] was transfected per well using FuGene transfection reagent according to the manufacturers instructions (Roche). Cells were allowed to express protein for 48 h followed by addition of compound.
Plasmids: Human PPAR α and γ was obtained by PCR amplification using cDNA synthesized by reverse transcription of mRNA from liver and adipose tissue respectively. Amplified cDNAs were cloned into pCR2.1 and sequenced. The ligand binding domain (LBD) of each PPAR isoform was generated by PCR (PPARα: aa 167—C-terminus; PPARγ: aa 165—C-terminus) and fused to the DNA binding domain (DBD) of the yeast transcription factor GAL4 by subcloning fragments in frame into the vector pM1 generating the plasmids pM1αLBD and pM1γLBD. Ensuing fusions were verified by sequencing. The reporter was constructed by inserting an oligonucleotide encoding five repeats of the GAL4 recognition sequence (5×[…](AG)) into the vector pGL2 promotor (Promega) generating the plasmid pGL2(GAL4)5. pCMVβGal was purchased from Clontech and p[…] was purchased from Promega.
(§4) Luciferase assay: Medium including test compound was aspirated and 100 μl PBS incl. 1 mM Mg++ and Ca++ was added to each well. The luciferase assay was performed using the Lu-cLite kit according to the manufacturers instructions (Packard Instruments). Light emission was quantified by counting SPC mode on a Packard Instruments top-counter. To measure β-galactosidase activity 25 μl supernatant from each transfection lysate was transferred to a new microplate. β-galactosidase assays were performed in the microwell plates using a kit from Promega and read in a microplate reader. The β-galactosidase data were used to normalize (transfection efficiency, cell growth etc.) the luciferase data.
(§5) Compounds: All compounds were dissolved in DMSO and diluted 1:1000 upon addition to the cells. Compounds were tested in quadruple in five concentrations ranging form 0.01 to 30 μM. Cells were treated with compound for 24 h followed by luciferase assay. Each compound was tested in three separate experiments. EC50 values were calculated via non-linear regression using GraphPad PRISM 3.02 (GraphPad Software, San Diego, Calif.). The results were expressed as means.

human PPAR γ = molecular target: T2, human PPAR γ (Homo sapiens, UniProt P37231); assay: In vitro PPAR gamma transactivation assay (GAL4-DBD/PPAR-LBD, luciferase reporter, HEK293); type: cell-based; conditions: for In vitro activation PPAR γ % max: fold activation relative to maximum activation obtained with rosiglitazone (approx. […] fold corresponded to 100%); for EC50: transfected HEK293 cells, 24 h compound, five concentrations 0.01 to 30 μM, at least three experiments, means, read-out: In vitro activation PPAR γ EC50
T2 construct: PPARγ: aa 165—C-terminus); expressed in transfected cells; host or cells: HEK293
T2 sequence (P37231 238-503 limits assumed): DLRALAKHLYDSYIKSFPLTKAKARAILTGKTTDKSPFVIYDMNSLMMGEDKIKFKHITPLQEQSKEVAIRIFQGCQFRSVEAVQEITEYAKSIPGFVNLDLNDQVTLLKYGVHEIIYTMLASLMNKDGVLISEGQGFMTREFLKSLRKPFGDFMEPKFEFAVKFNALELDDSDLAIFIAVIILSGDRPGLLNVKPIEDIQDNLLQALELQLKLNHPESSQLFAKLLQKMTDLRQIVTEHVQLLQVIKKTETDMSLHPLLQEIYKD
Text: as §1, §2, §3
Plasmids: Human PPAR α and γ was obtained by PCR amplification using cDNA synthesized by reverse transcription of mRNA from liver and adipose tissue respectively. Amplified cDNAs were cloned into pCR2.1 and sequenced. The ligand binding domain (LBD) of each PPAR isoform was generated by PCR (PPARα: aa 167—C-terminus; PPARγ: aa 165—C-terminus) and fused to the DNA binding domain (DBD) of the yeast transcription factor GAL4 by subcloning fragments in frame into the vector pM1 generating the plasmids pM1αLBD and pM1γLBD. Ensuing fusions were verified by sequencing.
as §4, §5

SMILES | melting point [°C] | In vitro activation PPAR α % max (human PPAR α) [%] | EC50 (human PPAR α) [nM] | In vitro activation PPAR γ % max (human PPAR γ) [%] | EC50 (human PPAR γ) [nM]
CCOC(=O)C(Cc1ccc(OC/C=C(\C)c2ccc(-c3ccccc3)cc2)cc1)OC(C)C (racemic) [Example 133, (E)-(S/R)-Ethyl 3-[4-(3-Biphenyl-4-yl-but-2-enyloxy)-phenyl]-2-isopropoxy-propionate] | 79 to 81 | – | – | – | –
CCCCOC(Cc1ccc(OC/C=C(\C)c2ccc(-c3ccccc3)cc2)cc1)C(=O)OCC (racemic) [Example 135, (E)-(S/R)-Ethyl 3-[4-(3-Biphenyl-4-yl-but-2-enyloxy)-phenyl]-2-butoxy-propionate] | 62 to 63.5 | – | – | – | –
CCO[C@@H](Cc1ccc(OC/C=C(\C)c2ccc(-c3ccc(Br)cc3)cc2)cc1)C(=O)O [Example 4, (E)-(S)-3-{4-[3-(4′-Bromo-biphenyl-4-yl)-but-2-enyloxy]-phenyl}-2-ethoxy-propionic acid] | – | 212 | 3100 | 156 | 720
CCOC(=O)[C@H](Cc1ccc(OC/C=C(\C)c2ccc3c(c2)Cc2ccccc2-3)cc1)OCC [Example 9, (E)-(S)-2-Ethoxy-3-{4-[3-(9H-fluoren-2-yl)-but-2-enyloxy]-phenyl}-propionic acid ethyl ester] | – | 234 | 38 | 125 | 350
CCOC(=O)[C@H](Cc1ccc(OC/C=C/c2cc3ccccc3o2)cc1)OCC [Example 27] | – | 185 | 100 | 99 | 110
CCO[C@@H](Cc1ccc(OC/C=C(\C)c2ccc(-c3cc(Cl)ccc3OC)cc2)cc1)C(=O)O [Example 57, (E)-(S)-3-{4-[3-(5′-Chloro-2′-methoxy-biphenyl-4-yl)-but-2-enyloxy]-phenyl}-2-ethoxy-propionic acid] | – | 178 | 380 | 110 | 700
CCOC(=O)[C@H](Cc1ccc(OC/C=C(\C)c2ccc(-c3ccc(C(C)C)cc3)cc2)cc1)OCC [Example 103, (E)-(S)-Ethyl 2-Ethoxy-3-{4-[3-(4′-isopropyl-biphenyl-4-yl)-but-2-enyloxy]-phenyl}-propionate] | 70 to 73 | – | – | – | –
CCO[C@@H](Cc1ccc(OC/C=C(\C)c2ccc(-c3cc(Br)cc(Br)c3)cc2)cc1)C(=O)O [Example 124, (E)-(S)-3-{4-[3-(3′,5′-Dibromo-biphenyl-4-yl)-but-2-enyloxy]-phenyl}-2-ethoxy-propionic acid] | – | 102 | 350 | 83 | 300

Results, then the compound that gave them:

melting point [°C] | In vitro activation PPAR α % max (human PPAR α) [%] | EC50 (human PPAR α) [nM] | In vitro activation PPAR γ % max (human PPAR γ) [%] | EC50 (human PPAR γ) [nM] | SMILES
125 to 127.5 | 122 | 2900 | 155 | 890 | C/C(=C\COc1ccc(CC(OC(C)C)C(=O)O)cc1)c1ccc(-c2ccccc2)cc1 (racemic) [Example 134, (E)-(S/R)-3-[4-(3-Biphenyl-4-yl-but-2-enyloxy)-phenyl]-2-isopropoxy-propionic acid]
117 to 119 | – | – | – | – | CCCCCCOC(Cc1ccc(OC/C=C(\C)c2ccc(-c3ccccc3)cc2)cc1)C(=O)O (racemic) [Example 138, (E)-(S/R)-3-[4-(3-Biphenyl-4-yl-but-2-enyloxy)-phenyl]-2-hexyloxy-propionic acid]
115 to 117 | – | – | – | – | C/C(=C\COc1ccc(CC(OCCCc2ccccc2)C(=O)O)cc1)c1ccc(-c2ccccc2)cc1 (racemic) [Example 140, (E)-(S/R)-3-[4-(3-Biphenyl-4-yl-but-2-enyloxy)-phenyl]-2-(3-phenyl-propoxy)-propionic acid]
